These results are taken from patent US20140066370A1, “Polypeptide Conjugate” (priority 2009, published 2014).

For one series, the target named is T1, amylin receptor (Homo sapiens, UniProt P30988).
T1 sequence (P30988 25-474): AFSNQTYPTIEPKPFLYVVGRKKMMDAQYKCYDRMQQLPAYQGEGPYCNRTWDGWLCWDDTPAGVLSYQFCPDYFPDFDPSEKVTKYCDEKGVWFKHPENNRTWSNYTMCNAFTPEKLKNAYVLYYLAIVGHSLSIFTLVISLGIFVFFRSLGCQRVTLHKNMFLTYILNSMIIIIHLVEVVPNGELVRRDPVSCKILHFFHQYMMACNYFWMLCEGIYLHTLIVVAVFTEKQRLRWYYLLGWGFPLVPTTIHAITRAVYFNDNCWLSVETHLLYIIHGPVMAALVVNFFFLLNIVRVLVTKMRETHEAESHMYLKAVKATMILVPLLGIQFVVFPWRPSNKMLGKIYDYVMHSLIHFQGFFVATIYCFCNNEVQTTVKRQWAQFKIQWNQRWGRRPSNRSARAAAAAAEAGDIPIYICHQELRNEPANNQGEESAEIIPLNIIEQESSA
Description: binding selectivity for amylin receptor against the CGRP receptor.

The test system of a further series is male Sprague Dawley rats. Description: delay of gastric emptying (acetaminophen appearance in plasma). Format: in vivo, rat. As to the method: Polypeptide Conjugates and parent compounds were analyzed for their ability to delay gastric emptying in rats. […] Rats then received an oral gavage of 33 mg acetaminophen/1 ml Orablend (Paddock Laboratories, Inc., MN USA) at t=3.5 hr, 5.5 hr or 7.5 hr post-injection. Blood was collected for measurement of acetaminophen at 4 hr, 6 hr or 8 hr after SC injection. Gastric emptying was assessed by the appearance of acetaminophen in plasma 30 min after oral gavage.

The test system of the next series is rats. Description: acute kaolin intake (pica, nausea) and chow intake in rats. Format: in vivo, rat. The settings on record: 15 nmol/kg/d, 24 hr post injection. As for the experimental part:
To investigate possible nausea effects of the conjugate polypeptide, acute kaolin intake was measured in rats. Pica behavior (ingestion of dirt/clay) is a marker of nausea in rodents, typically associated with reduced food intake and weight loss. Pica can be assessed by measuring intake of the synthetic clay kaolin. […] Rats were acclimated to kaolin for 3 days as kaolin clay mixed in with regular chow. A 4 hr and a 24 hr baseline kaolin and chow intake were then measured. Subsequently, rats were fasted for approximately 16 hrs after which test compound was injected at the dose indicated below. At 24 hr post injection chow and kaolin consumption was measured.

The next series deals with NIH/Swiss female mice. As to the kind of experiment: basal glucose lowering assay (Oral Glucose Tolerance Test; OGTT). Format: in vivo, mouse. The settings on record: IP at t=-5 min, 4-hour fasted mice, glucose gavage […], blood glucose at t=30 minutes. As to the method: Polypeptide Conjugates and parent compounds were analyzed in an in vivo basal glucose lowering assay. This assay reflects the conjugate polypeptide's ability to enhance insulin-mediated glucose clearance of orally administered glucose challenge (Oral Glucose Tolerance Test; OGTT). The OGTT is used to diagnose diabetes, although the simpler fasting plasma glucose test, which measures a subject's plasma glucose level after fasting for at least eight hours, is preferred. The following procedure was used: Test compound at various concentrations was injected intraperitoneally (IP) at t=−5 min to 4-hour fasted NIH/Swiss female mice. Glucose gavage (1.5 g/kg) was given at t=0. Sample was taken at t=30 minutes as tail blood glucose using a OneTouch® Ultra® (LifeScan, Inc., Milpitas, Calif.). Significant effects were identified by ANOVA (p<0.05), followed by Dunnett's post test using GraphPad Prism version 4.00 for Windows (GraphPad Software, San Diego Calif.).

The subject of series [1] is diet-induced obese (DIO) male Sprague Dawley rats. As to the kind of experiment: DIO rat 4-week constant sc infusion: body weight. In kind it is in vivo. The settings on record: 100 nmol/kg/d of previous reference conjugates. As to the method: Various metabolic and PK parameters were evaluated.
Study Design. The Polypeptide Conjugates were tested relative to vehicle (50% DMSO in sterile water) and parent compounds alone and in combination (see Table 1).
Food intake and body weight were measured weekly. Body composition was assessed on day −1 and day 28 using an NMR instrument (Echo Medical Systems, Houston, Tex.). Adiposity (percent fat mass) was defined as the amount of fat mass relative to body weight (fat mass/body weight×100). Blood was collected via tail vein on day 14. On day 28 a sample of blood was drawn via the jugular vein and animals were euthanized by isoflurane overdose. Mini-pumps were immediately removed, animals were subjected to a brief NMR scan, and tissues were collected for future histological examination and preliminary toxicological assessment.
Statistical Analysis. Data were analyzed using one-way analysis of variance (ANOVA) with Newman-Keuls post-hoc comparisons. Significance was assumed for p<0.05. Graphs were generated using Prism 4 for Windows (Graphpad Software, San Diego, Calif.). All data points are expressed as mean±SEM.

In a further series the target is T2, calcitonin receptors (Homo sapiens, UniProt P30988).
T2 sequence (P30988 25-474): T1 sequence (P30988 25-474)
Description: binding selectivity for calcitonin receptors against the CGRP receptor.

Where only a bound is given, the exact number is not on record here.

In the case of “HGEGTFTSDLSKQMEEEAVRLFIEWLKNGGGKCNTATCVLGRLSQELHRLQTYPRTNT GSNTY-NH2 [Cmpd 3A]”, the “selectivity for amylin receptor against the CGRP receptor” value at amylin receptor is reported as over 100 fold. Also, the “Percent Inhibition of Gastric Emptying 4 hr” value in the series on male Sprague Dawley rats (1 nmol/kg single sc injection, 4 hr) is given as 33. Further, the “Percent Inhibition of Gastric Emptying 6 hr” value in the series on male Sprague Dawley rats (1 nmol/kg single sc injection, 6 hr) came to 0. For the same sequence, the “Percent Inhibition of Gastric Emptying 8 hr” value in the series with male Sprague Dawley rats (1 nmol/kg single sc injection, 8 hr) turned out to be 0. In addition, the “inhibition of gastric emptying” value in the series with male Sprague Dawley rats (at the time point and doses tested) was “did not significantly inhibit gastric emptying”. For the same sequence, in the series with rats, the Inhibited food intake result was “Yes ~20%” and the Kaolin intake amounted to 0.5 g. In addition, the “ED50 in OGTT” value in the series with NIH/Swiss female mice is reported as 6 nmol/kg. In addition, the weight loss in series [1] was about 20%. For the same sequence, at calcitonin receptors, the “selectivity for calcitonin receptors against the CGRP receptor” value is over 280 fold.
